Assay: xn = mol fraction of the nth substance listed
Conditions: 100 kPa, Liquid; for mass density: Vibrating tube method; for viscosity: Concentric cylinders viscometry

CC1CCCCC1 [methylcyclohexane] + CC(C)CC(C)(C)C
Conditions | mass density [kg/m3] | viscosity [mPa·s]
308.15 K, x1 = 0.1012 | 685.89 | –
308.15 K, x1 = 0.2003 | 692.38 | –
308.15 K, x1 = 0.3001 | 699.2 | –
308.15 K, x1 = 0.4019 | 706.44 | –
308.15 K, x1 = 0.5008 | 713.78 | –
308.15 K, x1 = 0.6 | 721.47 | –
308.15 K, x1 = 0.6998 | 729.57 | –
308.15 K, x1 = 0.8 | 738.08 | –
308.15 K, x1 = 0.9 | 746.98 | –
308.15 K, x1 = 1 | 756.37 | –
313.15 K, x1 = 0.1012 | 681.69 | 0.44
313.15 K, x1 = 0.2003 | 688.17 | 0.45
313.15 K, x1 = 0.3001 | 694.97 | 0.461
313.15 K, x1 = 0.4019 | 702.2 | 0.473
313.15 K, x1 = 0.5008 | 709.52 | 0.486
313.15 K, x1 = 0.6 | 717.19 | 0.5
313.15 K, x1 = 0.6998 | 725.27 | 0.516
313.15 K, x1 = 0.8 | 733.75 | 0.535
313.15 K, x1 = 0.9 | 742.63 | 0.556
313.15 K, x1 = 1 | 752 | 0.58
318.15 K, x1 = 0.1012 | 677.34 | 0.422
318.15 K, x1 = 0.2003 | 683.85 | 0.432
318.15 K, x1 = 0.3001 | 690.64 | 0.443
318.15 K, x1 = 0.4019 | 697.75 | 0.453
318.15 K, x1 = 0.5008 | 705.13 | 0.465
318.15 K, x1 = 0.6 | 712.85 | 0.478
318.15 K, x1 = 0.6998 | 720.93 | 0.493
318.15 K, x1 = 0.8 | 729.36 | 0.509
318.15 K, x1 = 0.9 | 738.24 | 0.528
318.15 K, x1 = 1 | 747.58 | 0.549
323.15 K, x1 = 0.1012 | 673.08 | 0.406
323.15 K, x1 = 0.2003 | 679.58 | 0.415
323.15 K, x1 = 0.3001 | 686.35 | 0.426
323.15 K, x1 = 0.4019 | 693.44 | 0.435
323.15 K, x1 = 0.5008 | 700.81 | 0.446
323.15 K, x1 = 0.6 | 708.52 | 0.458
323.15 K, x1 = 0.6998 | 716.59 | 0.471
323.15 K, x1 = 0.8 | 725.08 | 0.486
323.15 K, x1 = 0.9 | 733.86 | 0.503
323.15 K, x1 = 1 | 743.17 | 0.522
333.15 K, x1 = 0.1012 | 664.46 | 0.378
333.15 K, x1 = 0.2003 | 670.92 | 0.386
333.15 K, x1 = 0.3001 | 677.66 | 0.395
333.15 K, x1 = 0.4019 | 684.72 | 0.402
333.15 K, x1 = 0.5008 | 692.07 | 0.411
333.15 K, x1 = 0.6 | 699.74 | 0.421
333.15 K, x1 = 0.6998 | 707.79 | 0.433
333.15 K, x1 = 0.8 | 716.25 | 0.445
333.15 K, x1 = 0.9 | 725.03 | 0.46
333.15 K, x1 = 1 | 734.29 | 0.476
343.15 K, x1 = 0.1012 | 655.69 | 0.355
343.15 K, x1 = 0.2003 | 662.12 | 0.361
343.15 K, x1 = 0.3001 | 668.84 | 0.368
343.15 K, x1 = 0.4019 | 675.87 | 0.375
343.15 K, x1 = 0.5008 | 683.23 | 0.383
343.15 K, x1 = 0.6 | 690.9 | 0.391
343.15 K, x1 = 0.6998 | 698.9 | 0.401
343.15 K, x1 = 0.8 | 707.33 | 0.411
343.15 K, x1 = 0.9 | 716.08 | 0.424
343.15 K, x1 = 1 | 725.31 | 0.439
